Assay results taken from ChEMBL document CHEMBL4004849, “Tetrazolylmethyl quinolines: Design, docking studies, synthesis, anticancer and antifungal analyses” (2017).
Values after ≈ are worked out from the molar mass of the structure shown. Active and inactive are the calls of the source. No cut-off for these calls is given here.

Test system: MCF7
Test: Growth inhibition of human MCF7 cells at 10^-5 M incubated for 48 hrs by sulforhodamine B assay relative to control
Format: functional
Conditions: not given

Row | SMILES | growth inhibition (GI)
1 | Cc1ccc2nc(Cl)c(Cn3nnc(CSc4ccccc4)n3)cc2c1 | Active

Test system: RXF 393
Test: Growth inhibition of human RXF393 cells at 10^-5 M incubated for 48 hrs by sulforhodamine B assay relative to control
Format: functional
Conditions: not given

Row | SMILES | growth inhibition (GI)
2 | Cc1ccc2nc(Cl)c(Cn3nnc(CSc4ccccc4)n3)cc2c1 | Active

Test system: OVCAR-3
Test: Growth inhibition of human OVCAR3 cells at 10^-5 M incubated for 48 hrs by sulforhodamine B assay relative to control
Format: functional
Conditions: not given

Row | SMILES | growth inhibition (GI)
3 | Cc1ccc2nc(Cl)c(Cn3nnc(CSc4ccccc4)n3)cc2c1 | Active

Test system: HCT-15
Test: Growth inhibition of human HCT15 cells at 10^-5 M incubated for 48 hrs by sulforhodamine B assay relative to control
Format: functional
Conditions: not given

Row | SMILES | growth inhibition (GI)
4 | Cc1ccc2nc(Cl)c(Cn3nnc(CSc4ccccc4)n3)cc2c1 | Active

Test system: HCC 2998
Test: Growth inhibition of human HCC2998 cells at 10^-5 M incubated for 48 hrs by sulforhodamine B assay relative to control
Format: functional
Conditions: not given

Row | SMILES | growth inhibition (GI)
5 | Cc1ccc2nc(Cl)c(Cn3nnc(CSc4ccccc4)n3)cc2c1 | Active

Test system: MDA-MB-231
Test: Growth inhibition of human MDA-MB-231/ATCC cells at 10^-5 M incubated for 48 hrs by sulforhodamine B assay relative to control
Format: functional
Conditions: not given

Row | SMILES | growth inhibition (GI)
6 | Cc1ccc2nc(Cl)c(Cn3nnc(CSc4ccccc4)n3)cc2c1 | Active

Test system: KM12
Test: Growth inhibition of human KM12 cells at 10^-5 M incubated for 48 hrs by sulforhodamine B assay relative to control
Format: functional
Conditions: not given

Row | SMILES | growth inhibition (GI)
7 | Cc1ccc2nc(Cl)c(Cn3nnc(CSc4ccccc4)n3)cc2c1 | Active

Test system: LOX IMVI
Test: Growth inhibition of human LOXIMVI cells at 10^-5 M incubated for 48 hrs by sulforhodamine B assay relative to control
Format: functional
Conditions: not given

Row | SMILES | growth inhibition (GI)
8 | Cc1ccc2nc(Cl)c(Cn3nnc(CSc4ccccc4)n3)cc2c1 | Active

Test system: UACC-257
Test: Growth inhibition of human UACC257 cells at 10^-5 M incubated for 48 hrs by sulforhodamine B assay relative to control
Format: functional
Conditions: not given

Row | SMILES | growth inhibition (GI)
9 | Cc1ccc2nc(Cl)c(Cn3nnc(CSc4ccccc4)n3)cc2c1 | Active

Test system: SK-MEL-28
Test: Growth inhibition of human SK-MEL-28 cells at 10^-5 M incubated for 48 hrs by sulforhodamine B assay relative to control
Format: functional
Conditions: not given

Row | SMILES | growth inhibition (GI)
10 | Cc1ccc2nc(Cl)c(Cn3nnc(CSc4ccccc4)n3)cc2c1 | Active

Test system: T47D
Test: Growth inhibition of human T47D cells at 10^-5 M incubated for 48 hrs by sulforhodamine B assay relative to control
Format: functional
Conditions: not given

Row | SMILES | growth inhibition (GI)
11 | Cc1ccc2nc(Cl)c(Cn3nnc(CSc4ccccc4)n3)cc2c1 | Active

Test system: MOLT-4
Test: Growth inhibition of human MOLT4 cells at 10^-5 M incubated for 48 hrs by sulforhodamine B assay relative to control
Format: functional
Conditions: not given

Row | SMILES | growth inhibition (GI)
12 | Cc1ccc2nc(Cl)c(Cn3nnc(CSc4ccccc4)n3)cc2c1 | Active

Test system: Candida albicans
Test: Antifungal activity against Candida albicans after 24 hrs by serial dilution method
Format: functional
Conditions: not given

Row | SMILES | MIC [µg/mL]
13 | Cc1ccc2nc(Cl)c(Cn3nnc(CSc4ccccc4)n3)cc2c1 | 10 (≈ 26.2 µM)

Test system: SNB-19
Test: Growth inhibition of human SNB19 cells at 10^-5 M incubated for 48 hrs by sulforhodamine B assay relative to control
Format: functional
Conditions: not given

Row | SMILES | growth inhibition (GI)
14 | Cc1ccc2nc(Cl)c(Cn3nnc(CSc4ccccc4)n3)cc2c1 | Active

Test system: A549
Test: Growth inhibition of human A549/ATCC cells at 10^-5 M incubated for 48 hrs by sulforhodamine B assay relative to control
Format: functional
Conditions: not given

Row | SMILES | growth inhibition (GI)
15 | Cc1ccc2nc(Cl)c(Cn3nnc(CSc4ccccc4)n3)cc2c1 | Active

Test system: BT-549
Test: Growth inhibition of human BT549 cells at 10^-5 M incubated for 48 hrs by sulforhodamine B assay relative to control
Format: functional
Conditions: not given

Row | SMILES | growth inhibition (GI)
16 | Cc1ccc2nc(Cl)c(Cn3nnc(CSc4ccccc4)n3)cc2c1 | Active

Test system: UO-31
Test: Growth inhibition of human UO31 cells at 10^-5 M incubated for 48 hrs by sulforhodamine B assay relative to control
Format: functional
Conditions: not given

Row | SMILES | growth inhibition (GI)
17 | Cc1ccc2nc(Cl)c(Cn3nnc(CSc4ccccc4)n3)cc2c1 | Active

Test system: SK-OV-3
Test: Growth inhibition of human SKOV3 cells at 10^-5 M incubated for 48 hrs by sulforhodamine B assay relative to control
Format: functional
Conditions: not given

Row | SMILES | growth inhibition (GI)
18 | Cc1ccc2nc(Cl)c(Cn3nnc(CSc4ccccc4)n3)cc2c1 | Active

Test system: HT-29
Test: Growth inhibition of human HT-29 cells at 10^-5 M incubated for 48 hrs by sulforhodamine B assay relative to control
Format: functional
Conditions: not given

Row | SMILES | growth inhibition (GI)
19 | Cc1ccc2nc(Cl)c(Cn3nnc(CSc4ccccc4)n3)cc2c1 | Active

Test system: Aspergillus fumigatus
Test: Antifungal activity against Aspergillus fumigatus after 24 hrs by serial dilution method
Format: functional
Conditions: not given

Row | SMILES | MIC [µg/mL]
20 | Cc1ccc2nc(Cl)c(Cn3nnc(CSc4ccccc4)n3)cc2c1 | 25 (≈ 65.5 µM)

Test system: SR
Test: Growth inhibition of human SR cells at 10^-5 M incubated for 48 hrs by sulforhodamine B assay relative to control
Format: functional
Conditions: not given

Row | SMILES | growth inhibition (GI)
21 | Cc1ccc2nc(Cl)c(Cn3nnc(CSc4ccccc4)n3)cc2c1 | Active

Test system: Hs-578T
Test: Growth inhibition of human Hs 578T cells at 10^-5 M incubated for 48 hrs by sulforhodamine B assay relative to control
Format: functional
Conditions: not given

Row | SMILES | growth inhibition (GI)
22 | Cc1ccc2nc(Cl)c(Cn3nnc(CSc4ccccc4)n3)cc2c1 | Active

Test system: NCI-H23
Test: Growth inhibition of human NCI-H23 cells at 10^-5 M incubated for 48 hrs by sulforhodamine B assay relative to control
Format: functional
Conditions: not given

Row | SMILES | growth inhibition (GI)
23 | Cc1ccc2nc(Cl)c(Cn3nnc(CSc4ccccc4)n3)cc2c1 | Active

Test system: SF-268
Test: Growth inhibition of human SF268 cells at 10^-5 M incubated for 48 hrs by sulforhodamine B assay relative to control
Format: functional
Conditions: not given

Row | SMILES | growth inhibition (GI)
24 | Cc1ccc2nc(Cl)c(Cn3nnc(CSc4ccccc4)n3)cc2c1 | Active

Test system: SK-MEL-5
Test: Growth inhibition of human SK-MEL-5 cells at 10^-5 M incubated for 48 hrs by sulforhodamine B assay relative to control
Format: functional
Conditions: not given

Row | SMILES | growth inhibition (GI)
25 | Cc1ccc2nc(Cl)c(Cn3nnc(CSc4ccccc4)n3)cc2c1 | Active

Test system: SF-539
Test: Growth inhibition of human SF539 cells at 10^-5 M incubated for 48 hrs by sulforhodamine B assay relative to control
Format: functional
Conditions: not given

Row | SMILES | growth inhibition (GI)
26 | Cc1ccc2nc(Cl)c(Cn3nnc(CSc4ccccc4)n3)cc2c1 | Active

Test system: SNB-75
Test: Growth inhibition of human SNB75 cells at 10^-5 M incubated for 48 hrs by sulforhodamine B assay relative to control
Format: functional
Conditions: not given

Row | SMILES | growth inhibition (GI)
27 | Cc1ccc2nc(Cl)c(Cn3nnc(CSc4ccccc4)n3)cc2c1 | Active

Test system: OVCAR-5
Test: Growth inhibition of human OVCAR5 cells at 10^-5 M incubated for 48 hrs by sulforhodamine B assay relative to control
Format: functional
Conditions: not given

Row | SMILES | growth inhibition (GI)
28 | Cc1ccc2nc(Cl)c(Cn3nnc(CSc4ccccc4)n3)cc2c1 | Active

Test system: UACC-62
Test: Growth inhibition of human UACC62 cells at 10^-5 M incubated for 48 hrs by sulforhodamine B assay relative to control
Format: functional
Conditions: not given

Row | SMILES | growth inhibition (GI)
29 | Cc1ccc2nc(Cl)c(Cn3nnc(CSc4ccccc4)n3)cc2c1 | Active

Test system: OVCAR-4
Test: Growth inhibition of human OVCAR4 cells at 10^-5 M incubated for 48 hrs by sulforhodamine B assay relative to control
Format: functional
Conditions: not given

Row | SMILES | growth inhibition (GI)
30 | Cc1ccc2nc(Cl)c(Cn3nnc(CSc4ccccc4)n3)cc2c1 | Active

Test system: OVCAR-8
Test: Growth inhibition of human OVCAR8 cells at 10^-5 M incubated for 48 hrs by sulforhodamine B assay relative to control
Format: functional
Conditions: not given

Row | SMILES | growth inhibition (GI)
31 | Cc1ccc2nc(Cl)c(Cn3nnc(CSc4ccccc4)n3)cc2c1 | Active

Test system: NCI-H226
Test: Growth inhibition of human NCI-H226 cells at 10^-5 M incubated for 48 hrs by sulforhodamine B assay relative to control
Format: functional
Conditions: not given

Row | SMILES | growth inhibition (GI)
32 | Cc1ccc2nc(Cl)c(Cn3nnc(CSc4ccccc4)n3)cc2c1 | Active

Test system: Aspergillus fumigatus
Test: Antifungal activity against Aspergillus fumigatus at 100 ug/ml by disc diffusion method
Format: functional
Conditions: read-out: IZ

Row | SMILES | zone of inhibition at 100 µg/mL [mm]
33 | Cc1ccc2nc(Cl)c(Cn3nnc(CSc4ccccc4)n3)cc2c1 | 18

Test system: COLO 205
Test: Growth inhibition of human COLO205 cells at 10^-5 M incubated for 48 hrs by sulforhodamine B assay relative to control
Format: functional
Conditions: not given

Row | SMILES | growth inhibition (GI)
34 | Cc1ccc2nc(Cl)c(Cn3nnc(CSc4ccccc4)n3)cc2c1 | Active

Test system: TK-10
Test: Growth inhibition of human TK10 cells at 10^-5 M incubated for 48 hrs by sulforhodamine B assay relative to control
Format: functional
Conditions: not given

Row | SMILES | growth inhibition (GI)
35 | Cc1ccc2nc(Cl)c(Cn3nnc(CSc4ccccc4)n3)cc2c1 | Active

Test system: K562
Test: Growth inhibition of human K562 cells at 10^-5 M incubated for 48 hrs by sulforhodamine B assay relative to control
Format: functional
Conditions: not given

Row | SMILES | growth inhibition (GI)
36 | Cc1ccc2nc(Cl)c(Cn3nnc(CSc4ccccc4)n3)cc2c1 | Active

Test system: U-251
Test: Growth inhibition of human U251 cells at 10^-5 M incubated for 48 hrs by sulforhodamine B assay relative to control
Format: functional
Conditions: not given

Row | SMILES | growth inhibition (GI)
37 | Cc1ccc2nc(Cl)c(Cn3nnc(CSc4ccccc4)n3)cc2c1 | Active

Test system: SW-620
Test: Growth inhibition of human SW620 cells at 10^-5 M incubated for 48 hrs by sulforhodamine B assay relative to control
Format: functional
Conditions: not given

Row | SMILES | growth inhibition (GI)
38 | Cc1ccc2nc(Cl)c(Cn3nnc(CSc4ccccc4)n3)cc2c1 | Active

Test system: 786-0
Test: Growth inhibition of human 786-0 cells at 10^-5 M incubated for 48 hrs by sulforhodamine B assay relative to control
Format: functional
Conditions: not given

Row | SMILES | growth inhibition (GI)
39 | Cc1ccc2nc(Cl)c(Cn3nnc(CSc4ccccc4)n3)cc2c1 | Active

Test system: SF-295
Test: Growth inhibition of human SF295 cells at 10^-5 M incubated for 48 hrs by sulforhodamine B assay relative to control
Format: functional
Conditions: not given

Row | SMILES | growth inhibition (GI)
40 | Cc1ccc2nc(Cl)c(Cn3nnc(CSc4ccccc4)n3)cc2c1 | Active

Test system: EKVX
Test: Growth inhibition of human EKVX cells at 10^-5 M incubated for 48 hrs by sulforhodamine B assay relative to control
Format: functional
Conditions: not given

Row | SMILES | growth inhibition (GI)
41 | Cc1ccc2nc(Cl)c(Cn3nnc(CSc4ccccc4)n3)cc2c1 | Active

Test system: SN12C
Test: Growth inhibition of human SN12C cells at 10^-5 M incubated for 48 hrs by sulforhodamine B assay relative to control
Format: functional
Conditions: not given

Row | SMILES | growth inhibition (GI)
42 | Cc1ccc2nc(Cl)c(Cn3nnc(CSc4ccccc4)n3)cc2c1 | Active

Test system: HL-60(TB)
Test: Growth inhibition of human HL-60(TB) cells at 10^-5 M incubated for 48 hrs by sulforhodamine B assay relative to control
Format: functional
Conditions: not given

Row | SMILES | growth inhibition (GI)
43 | Cc1ccc2nc(Cl)c(Cn3nnc(CSc4ccccc4)n3)cc2c1 | Active

Test system: ACHN
Test: Growth inhibition of human ACHN cells at 10^-5 M incubated for 48 hrs by sulforhodamine B assay relative to control
Format: functional
Conditions: not given

Row | SMILES | growth inhibition (GI)
44 | Cc1ccc2nc(Cl)c(Cn3nnc(CSc4ccccc4)n3)cc2c1 | Active

Test system: M14
Test: Growth inhibition of human M14 cells at 10^-5 M incubated for 48 hrs by sulforhodamine B assay relative to control
Format: functional
Conditions: not given

Row | SMILES | growth inhibition (GI)
45 | Cc1ccc2nc(Cl)c(Cn3nnc(CSc4ccccc4)n3)cc2c1 | Active
